Data set [1] deals with trypsin-like proteases. The experiment in a line: Resistance to trypsin degradation. It is filed as in vitro ADME.
The target of data set [2] is T1, 67 kDa laminin receptor (67-LR) (Homo sapiens, UniProt P08865).
T1 construct: endogenous in cells; host or cells: T47-D or SK HEP-1 cells (whole-cell suspension)
Description: 125I-laminin displacement (competition binding) on T47-D or SK HEP-1 cells. As to conditions: relative to mEGF(33-42); 0.1 nM 125I-laminin, overnight 4° C. On the procedure: ^125I-laminin was prepared using ^125I-labelled sodium iodide (Amersham, UK) and immobilised chloramine-T (Iodobeads; Pierce, Ill.). Prior to use, the beads were washed with 500 μl phosphate buffer (pH 6.5) to remove excess reagent from the support. These were then allowed to air dry and individual beads added to a solution of carrier free Na^125I, diluted with iodination buffer (phosphate buffer pH 7.4). The beads were allowed to equilibrate for 5 min.
Laminin (10 μg in 10 μl) was then diluted into the iodination buffer and the system incubated at 20° C. for 15 min. The solution was then removed from the reaction vessel and excess Na^125I and unincorporated ^125I2 separated from the iodinated protein by gel filtration on a GF-5 exclusion column (Pierce, Ill.). Iodinated laminin fractions were recovered at a specific activity of approximately 1.2 mCi/mg protein (864 Ci/mmol).
Near confluent cultures of T47-D or SK HEP-1 cells were removed from monolayer with 0.02% EGTA and passed through a G-25 syringe needle to produce single cell suspensions. Aliquots of each cell type (10^6 cells/ml) were dispensed into separate Ependorf tubes (1 ml each) and pelleted. The cells were then resuspended in 1 ml ice-cold RPMI (SK HEP-1) or DMEM (T47-D) containing 0.1% BSA and either laminin or synthetic peptide at the concentrations indicated. Iodinated laminin was then added to each cell suspension to give a final ^125I-laminin concentration of 0.1 nM (approximately 50,000 cpm). These mixtures were incubated overnight at 4° C.
The tubes were then microfuged at 10,000 g and the supernatant removed. After washing the pellet with 500 μl CFS, the remaining radioactivity was determined using a gamma radiation counter. Non-specific binding was determined by incubating cells with a 1000-fold molar excess of unlabelled laminin. All estimations were carried out in triplicate.
(§1) IC50 (concentration of unlabelled peptide required to produce 50% inhibition of radioligand binding) and EC50 (effective concentration for 50% inhibition of cell attachment) values were calculated using the Grafit curve-fitting programme (Erithacus Software, London, UK).

Data set [3] has as its system cell attachment to laminin through the 67-LR (T-47D, SK HEP-1). The experiment in a line: Laminin attachment assay. It is filed as cell-based, human. Particulars: relative to mEGF(33-42). On the procedure:
Non-tissue culture grade 96-well plates, coated with 2.5 μg murine laminin in 50 μl CFS per well, were air-dried overnight at room temperature. […] After rinsing with CFS (100 μl), the plastic was saturated with casein (0.2% in CFS). Plates were incubated at room temperature for 45 min then washed extensively with CFS (3×100 μl).
After removal of culture media, cells were detached from monolayers by the action of EGTA (0.02% in CFS) at 37° C. The cells were then centrifuged at 800 g for 2 min and the pellet resuspended in DMEM (T-47D) or RPMI (SK HEP-1).
Cells, at a population density of 10^6 cells/ml, were then aliquoted (1 ml) into microfuge tubes containing the individual peptide sequences and incubated for 1 h at 37° C. The cells (100 μl aliquots) were then added to the pre-coated multi-well plates and incubated for a further 60 min. Incubation media were removed and the wells washed with CFS (3×100 μl) to rid the plates of non-adherent cells.
Attached cell numbers were evaluated spectrophotometrically at 620 nm after fixing with 10% formaldehyde and staining with crystal violet.
as §1

For data set [4], the system named is Endothelial cells (SK HEP-1 and BRCE). Description: Migration assay (colloidal gold track area). It counts as cell-based. As to conditions: endothelial cells, 18 h. The protocol: The method used was basically as described by Albrecht-Buehler (1977). Briefly, coverslips (22×22 mm) were treated in 5% detergent (7×; ICN Biomedicals) and washed in alcohol to remove grease. After drying, they were immersed in gelatin solution (Sigma, 300 Bloom; 0.5 g in 300 ml distilled H2O) for 10 min. The coverslips were then dried by placing in a 70° C. oven for 45 min.
Colloidal gold suspension was prepared by adding 11 ml distilled H2O and 6 ml Na2CO3 (36.5 mM) to 1.8 ml AuHCl4 (14.5 mM). The mixture was heated to 95° C. at which point 1.8 ml of freshly prepared 0.1% formaldehyde solution was added; the temperature was maintained at 95° C. A suspension of colloidal gold was formed which was brown to absorbed light and blue to transmitted light.
The gold suspension, was then added to petri dishes containing individual coverslips and the plates incubated at 37° C. for 45 min. After washing with CFS (3×4 ml) to remove unattached gold particles, the coverslips were transferred to 6-well cluster dishes and UV sterilised.
Endothelial cells (SK HEP-1 and BRCE) in culture media (0.3 ml) were seeded onto the coverslips at an approximate density of 5×10^3 cells per well. The cells were allowed to plate down for 2 h at 37° C. after which the treatments were added. Assay systems were maintained for a further 18 h after which the cells were fixed using 3% gluteraldehyde in cacodylate buffer (pH 7.2).
The assays were examined using a Leica DM1RB phase contrast microscope and Q500MC image analysis system incorporating a JVC TK-1280E colour camera (Leica, Milton Keynes, UK). The track images of at least 30 cells were videocaptured and the area (representing migration response) determined for each. Statistical analysis of these areas was then carried out using Macintosh Instat software to perform both Kruskal-Wallis analysis of variance and Mann-Whitney U-tests in order to compare the treatment groups with controls.

Data set [5] deals with T2, 67 kDa laminin receptor (Homo sapiens, UniProt P08865).
T2 construct: endogenous in cells
The experiment in a line: Cell attachment to biotinylated mEGF(33-42) with anti-laminin receptor or anti-EGF receptor antibodies. It is filed as cell-based. On the procedure:
Briefly, 96-well plates were coated with 100 μl/well streptavidin (5 μg/ml in carbonate buffer pH 9.6) and following an overnight incubation at 37° C., wells were washed with CFS (3×100 μl) and the plastic blocked with casein (0.2% in CFS). The plates were then incubated at room temperature for 45 min and washed with CFS as previously detailed. Biotinylated mEGF(33-42) in CFS was then aliquoted into the wells (0.1 ml of 100 μM) and the plates incubated for 3 h at 37° C.
After a further block with 0.2% casein, the wells were washed with CFS (3×100 μl aliquots). Plates were kept at 4° C. and used within 2 h.
Cells were prepared as above and pre-incubated for 1 h at 37° C. with serial dilutions of anti-laminin receptor polyclonal (see below) or anti-EGF (R1) receptor monoclonal antibodies. Subsequent procedures were as detailed for the laminin attachment assay.

The subject of data set [6] is angiogenesis in the chick. The experiment in a line: Chick angiogenesis model. It counts as in vivo. As to conditions: laminin-stimulated; model not stated at the place (Nelson et al 1995).
For data set [7], the system named is angiogenesis in the chick. As to conditions: shown previously; cited from earlier work.
Data set [8] has as its system Endothelial cells (SK HEP-1 and BRCE). As to conditions: shown previously; cited from earlier work.
Data set [9] deals with T3, 67-LR (Homo sapiens, UniProt P08865).
T3 construct: endogenous in cells
The experiment in a line: Peptide screening for receptor interaction, cell adhesion and motility properties. It is filed as cell-based. From the text:
In addition, using residue exchange between the two peptides and molecular modelling to predict three-dimensional structure, we wished to further investigate the role of individual mEGF(33-42) residues in laminin antagonism. A logical series of peptides was synthesised and screened for receptor interaction, cell adhesion and motility properties (Table 1a and 1b).

Non-standard residues stand in square brackets, D forms with d. Residues, ends and D or L forms follow the SMILES beside them. No end group written: not given here. *: point of attachment. Tic‑OH = tetrahydroisoquinoline-3-carboxylic acid (hydroxy-substituted), constrained Tyr mimetic; Cit = NC(=O)NCCC[C@H](N)C(=O)O; Acm = CC(=O)NC*

`CC[C@H](C)[C@H](NC(=O)[C@@H](NC(=O)[C@H](CSCNC(C)=O)NC(C)=O)C(C)C)C(=O)NCC(=O)N[C@@H](Cc1ccc(O)cc1)C(=O)N[C@@H](CO)C(=O)NCC(=O)N[C@@H](CC(=O)O)C(=O)N[C@@H](CCCNC(N)=O)C(=O)N[C@@H](CSCNC(C)=O)C(N)=O` [peptide IV, AcC(Acm)-VIGYSGD-[Cit]-C-(Acm)-NH2] (Ac-C(Acm)VIGYSGD[Cit]C(Acm)-NH2): in data set [1], the “resistance to trypsin / trypsin-like proteases” value was “resistant to cleavage by trypsin-like proteases”. The “receptor affinity, 125I-laminin displacement (IC50), in words” value (from here on “receptor affinity”) in data set [2] was “increased both receptor binding and inhibition of attachment to laminin substrata”.

With “AVIGYSGDRC [peptide VIII, alanine scan of mEGF(33-42): alanine for cysteine (P1)]”, the “inhibition of cell attachment (adhesion) to laminin (EC50), in words” value (shortened to “inhibition of cell attachment (adhesion)”) in data set [3] is given as “parallel decrease in their ability to block adhesion to laminin”. Moreover, the “receptor affinity” value in data set [2] is “dramatic decrease in receptor affinity”. Also, the “migration (motility) response: laminin agonist or antagonist” value (from here on “migration (motility) response”) in data set [4] is “weak laminin agonist”.

Regarding “Acetyl-C-[S-Acm]-VIGYSGDR-C-[S-Acm]NH2 (Ac-C(Acm)VIGYSGDRC(Acm)-NH2) [mEGF(33-42), capped synthetic peptide of residues 33 to 42 of murine epidermal growth factor, 67LR antagonist]”, the “receptor that mediates the anti-angiogenic effects” value in [5] (67-LR versus EGF receptor) is “mediated solely through the high affinity 67 kDa laminin receptor (67-LR) and not through the EGF receptor”. In [5] (biotinylated derivative of the peptide on streptavidin plates), the “binding to the 67 kDa laminin receptor” value is recorded as “bound to the 67 kDa laminin receptor”. Besides, the “angiogenic effects of laminin” value in data set [6] is listed as “inhibits the angiogenic effects of laminin”. In addition, in data set [2], the “receptor affinity” value is “equipotent”. Besides, in data set [7], the “EGF-stimulated angiogenic response in the early chick” value is on record as “inhibit the EGF-stimulated angiogenic response”. In addition, the “migration (motility) response” value in data set [4] is “antagonist”. The “basal and EGF-stimulated motility of primary and established endothelial cells” value in data set [8] was “blocking the basal and EGF-stimulated motility”.

Take “CAIGYSGDRC [peptide VII, alanine scan of mEGF(33-42): Ala for Val]”: the “inhibition of cell attachment (adhesion)” value in data set [3] is listed as “parallel decrease in their ability to block adhesion to laminin”. The “receptor affinity” value in [2] is “dramatic decrease in receptor affinity”.

“CVAGYSGDRC [peptide VI, alanine scan of mEGF(33-42): Ala for Ile]”: the “inhibition of cell attachment (adhesion)” value in [3] was “parallel decrease in their ability to block adhesion to laminin”. In data set [2], the “receptor affinity” value is given as “dramatic decrease in receptor affinity”.

“CVIGYAGDRC [X, alanine scan of mEGF(33-42): Ala for Ser (P6)]”: in data set [3], the “inhibition of cell attachment (adhesion)” value is listed as “parallel decrease in their ability to block adhesion to laminin”. Moreover, the “receptor affinity” value in data set [2] is listed as “dramatic decrease in receptor affinity”.

For the compound “CVIGYSGDRA [peptide IX, alanine scan of mEGF(33-42): alanine for cysteine at P10]”, in data set [3], the “inhibition of cell attachment (adhesion)” value is “retains both receptor binding and adhesion displacing activities”. The “receptor affinity” value in data set [2] was “retains both receptor binding and adhesion displacing activities”. Besides, the “migration (motility) response” value in data set [4] is reported as “has the agonism of Lam.β-1(925-933)”.

For laminin, the “receptor affinity” value in [2] is listed as “equipotent”.

As for “mEGF(33-42) analogue, isoleucine (P6) for serine; acetyl-Cys(ACM)-Val-Ile-Gly-Tyr-Ile-Gly-Asp-Arg-Cys(ACM)-NH2 (Ac-C(Acm)VIGYIGDRC(Acm)-NH2; SMILES CC[C@H](C)[C@H](NC(=O)[C@H](Cc1ccc(O)cc1)NC(=O)CNC(=O)[C@@H](NC(=O)[C@@H](NC(=O)[C@H](CSCNC(C)=O)NC(C)=O)C(C)C)[C@@H](C)CC)C(=O)NCC(=O)N[C@@H](CC(=O)O)C(=O)N[C@@H](CCCNC(=N)N)C(=O)N[C@@H](CSCNC(C)=O)C(N)=O) [peptide I]”, the “inhibition of cell attachment (adhesion)” value in data set [3] was “both reduced receptor affinity and potency in displacement of cell adhesion to laminin”. Also, in [2], the “receptor affinity” value was “reduced receptor affinity”. Moreover, the “migration (motility) response” value in [4] is reported as “weak antagonist activities”.

In the case of “peptide II: mEGF(33-42) analogue, aspartate (P8) replaced with serine (CVIGYSGSRC)”, the “biological function (receptor binding, adhesion, motility)” value in data set [9] was “complete loss of biological function”.

Turning to “peptide III: mEGF(33-42) analogue with both isoleucine (P6) for serine and serine (P8) for aspartate (CVIGYIGSRC)”, the “biological function (receptor binding, adhesion, motility)” value in [9] is given as “complete loss of biological function”.

As to “peptide V: mEGF(33-42) analogue, tyrosine (P5) substituted with Tic-OH (CVIG[Tic‑OH]SGDRC; cysteine pairing not given here)”, the “inhibition of cell attachment (adhesion)” value in [3] was “both receptor binding and adhesion responses were retained”. Besides, the “receptor affinity” value in data set [2] is “both receptor binding and adhesion responses were retained”. The “migration (motility) response” value in [4] is recorded as “agonist”.
